Data as given in patent US9193689B2, “3-aryl-5-substituted-isoquinolin-1-one compounds and their therapeutic use” (INSTITUTE OF CANCER RESEARCH: ROYAL CANCER HOSPITAL (THE), priority 2012, dated 2015).
Read-outs that look alike come from different tables or passages of the source.

Columns and labels:
[1] = tested on: Axin1 protein levels in DLD1 cells; test: Western Blotting for Direct and Downstream Targets of TNKS Inhibitors: Axin 1; format: cell-based;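 note: compound exposure 20 to 22 hours before lysis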
Experimental: DLD1 cells were assayed for the effect of putative Tankyrase1/2 inhibitors on TNKS1/2, Axin1/2 and β-catenin protein levels. […] Reduction of nuclear accumulation of β-catenin and ultimately, reduction of β-catenin/TCF/LEF transcriptional activation of Wnt target genes should correlate with loss of Wnt-luc reporter signal in the Wnt reporter assay.
DLD1 cells were seeded in a 6-well dish at 10000 cells/well in DMEM supplemented with 10% FBS. […] After washing in TBS-T, the membrane was probed with a species specific secondary antibody conjugated to HRP (1:5000, Pierce/ThermoFisher), washed again in TBS-T and reacted with chemiluminescent detection reagents (ECL, GE Healthcare, cat. no. RPN2109) followed by exposure to X-ray film (FujiFilm XR).

TNKS1 = TNKS1 (Homo sapiens, UniProt O95271); test: TNKS1/PARP Biochemical Assay (TNKS1)
DLD1 cells = test: Long-Term Clonogenic Assay (DLD1 cells); format: cell-based
Experimental: Clonogenic Inhibition in DLD1 or HT55 Cells
In order to determine the efficacy of chronic dosing of putative TNKS inhibitors, long term clonogenic or ‘colony formation’ assays were carried out. This included the sparse seeding of cells in a 6-well dish followed by continuous dosing of cells over 12-14 days (depending on relative cell growth). Appropriate cell lines (DLD1 or HT55) were seeded at 500 cells/well in a 6-well dish in DMEM supplemented with FBS. […] Dosages were carried out in triplicate. Cell media containing compound or DMSO only was replenished every 48 hours. Termination of the assay included the fixation of cells with trichlororacetic acid (1 mL, 10% (v/v), Sigma Aldrich, cat. no. T6399) and incubation for 16 hours at 4° C. Fixed cells were then washed with water, allowed to dry and stained with sulforhodamine B solution (sulforhodamine B 0.05% (w/v), Sigma Aldrich cat. no. S1402, acetic acid 1% (v/v), Fisher Scientific, cat. no. A/0400/PB17)) for 12 hours at room temperature. The stain was then removed and the cells washed copiously with aqueous acetic acid (1% v/v) and allowed to dry.
The data was normalised to the DMSO control and was expressed as surviving fraction as a function of inhibitor dose.

[2] = tested on: TNKS stabilisation in HeLa, HT1080, HTC75 cells
Experimental: Cells were seeded, dosed and whole cell lysates were isolated and western blotted as described above. Primary antibodies included TNKS (1:1000, Santa Cruz Biotech, cat. no. SC8377).

[3] = tested on: Wnt activity in DLD1-Wnt-Luc cells; test: Wnt-Luciferase Reporter Assay
[4] = read-out: Wnt IC50, DLD1-Wnt-Luc cells

| SMILES | stabilize Axin1 (Western blotting) [1] | IC50 (TNKS1) | Clonogenic SF50 (DLD1) (DLD1 cells) | stabilize TNKS (Western blotting) [2] | IC50 ([3]; read-out: Wnt IC50) | IC50 [3, 4] |
| --- | --- | --- | --- | --- | --- | --- |
| COCCN1CCN(C(=O)c2ccc(-c3cc4c(C)cccc4c(=O)[nH]3)cc2)CC1 [IQ-102] | stabilize Axin1 | < 20 nM | < 2 µM | stabilize TNKS |  |  |
| Cc1cccc2c(=O)[nH]c(-c3ccc(N(C)C)cc3)cc12 [IQ-001] |  | < 20 nM | < 2 µM |  |  |  |
| O=c1[nH]c(-c2ccc(N3CCNCC3)nc2)cc2c(Cl)cccc12 [IQ-027] | stabilize Axin1 | < 50 nM |  | stabilize TNKS |  |  |
| CC(=O)N1CCN(c2ccc(-c3cc4c(C)cccc4c(=O)[nH]3)cc2)CC1 [IQ-017] |  | < 20 nM | < 2 µM |  |  |  |
| Cc1cccc2c(=O)[nH]c(-c3ccc(OCCN(C)C)cc3)cc12 [IQ-130] | stabilize Axin1 | 16 nM |  | stabilize TNKS | 0.165 µM |  |
| Cc1cccc2c(=O)[nH]c(-c3cnc(N4CCN(C)CC4)c(F)c3)cc12 [IQ-021] |  | < 50 nM | < 2 µM |  |  |  |
| CN1CCN(Cc2ccc(-c3cc4c(Cl)cccc4c(=O)[nH]3)cc2)CC1 [IQ-043] |  | < 500 nM | < 2 µM |  |  |  |
| Cc1cccc2c(=O)[nH]c(-c3ccc(CN4C[C@@H]5C[C@H]4CN5)cc3)cc12 [IQ-086] |  | < 20 nM | < 2 µM |  |  |  |
| CN(C)CCN1CCN(c2ccc(-c3cc4c(Cl)cccc4c(=O)[nH]3)cn2)CC1 [IQ-019] |  | < 50 nM | < 2 µM |  |  |  |
| Cc1cccc2c(=O)[nH]c(-c3ccc(CN4CCCC4)cc3)cc12 [IQ-036] | stabilize Axin1 | < 50 nM |  | stabilize TNKS |  |  |
| Cc1cccc2c(=O)[nH]c(-c3ccc(CN4CCC(N(C)C)CC4)cc3)cc12 [IQ-053] |  |  |  | stabilize TNKS |  |  |
| CN1CCN(c2ccc(-c3cc4c(Cl)cccc4c(=O)[nH]3)cn2)CC1 [IQ-002-1] | stabilize Axin1 | < 50 nM | < 2 µM | stabilize TNKS |  |  |
| Cc1cccc2c(=O)[nH]c(-c3ccc(CN4CCN(C)CC4)cc3)cc12 [IQ-038] |  |  | < 2 µM | stabilize TNKS |  |  |
| CN(C)CCOc1ccc(-c2cc3c(F)cccc3c(=O)[nH]2)cc1 [IQ-129] |  | < 50 nM | < 2 µM |  |  | < 5 µM |
| Cc1cccc2c(=O)[nH]c(-c3ccc(CN4CCNC(C)C4)cc3)cc12 (single isomer, unassigned) [IQ-084-2] |  | < 50 nM | < 2 µM |  |  |  |
| Cc1cccc2c(=O)[nH]c(-c3ccc(CN4CCNCC4C)cc3)cc12 (single isomer, unassigned) [IQ-051-3] |  | < 50 nM | < 2 µM |  |  |  |
| CC(C)(C)OC(=O)N1CCN(Cc2ccc(-c3cc4c(Br)cccc4c(=O)[nH]3)cc2)CC1 [IQ-149, 4-[4-(5-Bromo-1-oxo-1,2-dihydro-isoquinolin-3-yl)-benzyl]-piperazine-1-carboxylic acid tert-butyl ester] |  | < 50 nM | < 2 µM |  |  | < 5 µM |
| Cc1cccc2c(=O)[nH]c(-c3ccc(CN4CCN(C(=O)NC(C)(C)C)CC4)cc3)cc12 [IQ-068, 4-[4-(5-methyl-1-oxo-1,2-dihydro-isoquinolin-3-yl)-benzyl]-piperazine-1-carboxylic acid tert-butylamide] |  | < 50 nM | < 2 µM |  |  |  |
| O=c1[nH]c(-c2cnc(N3CCNCC3)c(F)c2)cc2c(Cl)cccc12 [IQ-024] |  | < 500 nM |  |  |  | < 5 µM |
| CC(=O)N1CCN(c2ccc(-c3cc4c(C)cccc4c(=O)[nH]3)cn2)CC1 [IQ-005] |  | < 20 nM | < 2 µM |  |  |  |
| Cc1cccc2c(=O)[nH]c(-c3ccc(C(=O)N(C)C4CCN(C)CC4)cc3)cc12 [IQ-100, N-Methyl-4-(5-methyl-1-oxo-1,2-dihydro-isoquinolin-3-yl)-N-(1-methyl-piperidin-4-yl)-benzamide] | stabilize Axin1 | < 20 nM |  | stabilize TNKS |  |  |
| Cc1cccc2c(=O)[nH]c(-c3ccc(CN4CCN(C)CC4)nc3)cc12.O=CO [IQ-057] |  | < 50 nM | < 2 µM |  |  |  |
| Cc1cccc2c(=O)[nH]c(-c3ccc(C(=O)N4CCN(CC5CC5)CC4)cn3)cc12 [IQ-223, 3-[5-(4-Cyclopropylmethyl-piperazine-1-carbonyl)-pyridin-2-yl]-5-methyl-2H-isoquinolin-1-one] |  | 76 nM |  |  | 1.34 µM | < 5 µM |
| Cc1cccc2c(=O)[nH]c(-c3ccc(OCCN4CCOCC4)cc3)cc12 [IQ-133] | stabilize Axin1 | < 500 nM |  | stabilize TNKS |  |  |

| SMILES | stabilize Axin1 (Western blotting) [1] | IC50 (TNKS1) | Clonogenic SF50 (DLD1) (DLD1 cells) | stabilize TNKS (Western blotting) [2] | IC50 ([3]; read-out: Wnt IC50) | IC50 [3, 4] |
| --- | --- | --- | --- | --- | --- | --- |
| Cc1cccc2c(=O)[nH]c(-c3ccc(C(=O)N4CCC(N(C)C)CC4)cc3)cc12 [IQ-106] |  | < 50 nM | < 2 µM |  |  |  |
| CN1CCN(c2ncc(-c3cc4ccccc4c(=O)[nH]3)cn2)CC1 [REF-1, reference compound] |  | 33 nM |  |  | 0.825 µM |  |
| O=c1[nH]c(-c2ccc(OCCN3CCCC3)cc2)cc2c(Cl)cccc12 [IQ-135] |  | < 500 nM |  |  |  | < 5 µM |
| CN1CCN(C(=O)c2ccc(-c3cc4c(O)cccc4c(=O)[nH]3)cn2)CC1 [REF-7, reference compound] |  | 42 nM |  |  | > 10 µM |  |
| Cc1cccc2c(=O)[nH]c(-c3ccc(CN4CCCCC4)cc3)cc12 [IQ-037] | stabilize Axin1 | < 50 nM |  | stabilize TNKS |  |  |
| CN(C)CCOc1ccc(-c2cc3c(C#CCO)cccc3c(=O)[nH]2)cc1 [IQ-232] |  | < 500 nM |  |  |  | < 5 µM |
| Cc1cccc2c(=O)[nH]c(-c3ccc(CN4CCN(C)C(=O)C4)cc3)cc12 [IQ-054] |  | < 20 nM | < 2 µM |  |  |  |
| Cc1cccc2c(=O)[nH]c(-c3ccc(C(=O)N4CCN(CC5CC5)CC4)cc3F)cc12 [IQ-165] |  | < 500 nM |  |  |  | < 5 µM |
| Cc1cccc2c(=O)[nH]c(-c3ccc(S(=O)(=O)N4CCN(C)CC4)cc3)cc12 [IQ-121] |  | < 50 nM | < 2 µM |  |  |  |
| Cc1cc(F)cc2c(=O)[nH]c(-c3ccc(C(=O)N4CCN(C)CC4)cc3)cc12.O=CO [IQ-190] |  | < 20 nM | < 2 µM |  |  |  |
| COc1ccc(-c2cc3c(C)cccc3c(=O)[nH]2)nc1 [REF-8, reference compound] |  | 39 nM |  |  | 4.32 µM |  |
| Cc1cccc2c(=O)[nH]c(-c3ccc(CN4CCNC(C)C4)cc3)cc12 (single isomer, unassigned) [IQ-084-1] |  | < 50 nM | < 2 µM |  |  |  |
| CN1CCN(Cc2ccc(-c3cc4ccc(F)cc4c(=O)[nH]3)cc2)CC1 [REF-2, reference compound] |  | 48 nM |  |  | 1 µM |  |
| CN(C)CCOc1ccc(-c2cc3c(Br)cccc3c(=O)[nH]2)cc1 [IQ-132] |  | < 500 nM |  |  |  | < 5 µM |
| Cc1cccc2c(=O)[nH]c(-c3ccc(CN4CCC(O)CC4)cc3)cc12 [IQ-074, 3-[4-(4-Hydroxy-piperidin-1-ylmethyl)-phenyl]-5-methyl-2H-isoquinolin-1-one] |  | < 50 nM | < 2 µM |  |  |  |
| Cc1cc(F)cc2c(=O)[nH]c(-c3ccc(C(=O)N4CCN(C)CC4)nc3)cc12 [IQ-222] |  | 16 nM |  |  | 0.174 µM |  |
| Cc1cccc2c(=O)[nH]c(-c3ccc(C(C)N4CCN(C)CC4)cc3)cc12 (centres unmarked) [IQ-048] |  | < 20 nM | < 2 µM |  |  |  |
| O=c1[nH]c(-c2ccc(S(=O)(=O)N3CCNCC3)cc2)cc2c(Cl)cccc12 [IQ-124] |  | < 50 nM |  |  |  | < 5 µM |
| Cc1cccc2c(=O)[nH]c(-c3cnc(C(=O)N4CCN(C)CC4)nc3)cc12 [IQ-224] |  | < 50 nM |  |  |  | < 5 µM |
| O=C(C1CC1)N1CCN(c2ncc(-c3cc4c(O)cccc4c(=O)[nH]3)cn2)CC1 [REF-6, reference compound] |  | 24 nM |  |  | 0.611 µM |  |
| Cc1cccc2c(=O)[nH]c(-c3cnc(N4CCNCC4)c(F)c3)cc12 [IQ-023] |  | < 50 nM | < 2 µM |  |  |  |
| CN(C)C1CCN(c2ccc(-c3cc4c(Cl)cccc4c(=O)[nH]3)cn2)C1 (centres unmarked) [IQ-009] |  | < 500 nM | < 2 µM |  |  |  |
| Cc1ccc(F)c2c(=O)[nH]c(-c3ccc(C(=O)N4CCN(C)CC4)nc3)cc12 [IQ-221] |  | < 500 nM |  |  |  | < 5 µM |
